How the values were obtained:
[1] = tested on: Enterococcus faecalis isolated from burn patients; assay: Antibiotic resistance profile, disc diffusion method; further: key: R = resistant; I = intermediate; S = sensitive; assay type: cell-based; conditions: E. faecalis
Pseudomonas aeruginosa [2] = assay: MIC/MBC microtiter dilution and checkerboard of EDTA-Tris and neomycin; assay type: cell-based
Experimental: (§1) This example describes a method for determining the FIC values set forth in Example 4. […] Agents and Chem. pp. 210-217 (1967); and Sparks et al., Vet. Res. Comm. 18:241-249 (1994). Each of the foregoing publications are incorporated herein by reference.
(§2) Then 0.05 ml of an 18-hour old culture of a test organism, containing […] colony-forming units (CFU) ml, were added to each well. Controls for the culture and media were included in each plate. Plates were covered and incubated at 37° C. for 18-24 hours.
(§3) To generate isobolograms, FICs of the two test solutions were plotted individually on the x-axis and y-axis to determine the effect of combining the two test solutions on bacterial growth. A line that curves away from the zero point and the coordinates indicated antagonism. […] Goodman and Gilman, pp. 1085-1086 (Macmillan Publishing Co., New York, 1985); Sabath, L. D., Antimicrob. Agents and Chem. pp. 210-217 (1967) and incorporated herein by reference in their entireties.
(§4) 307 (pub: Am. Soc. Microbiol. Williams and Wilkins, Baltimore 1970), incorporated herein by reference in its entirety.

Staphylococcus aureus = assay: as above; assay type: cell-based
Experimental: as §1, §2, §3, §4

Enterococcus faecalis = assay: as above; assay type: cell-based
Experimental: as §1, §2, §3, §4

[3] = tested on: Pseudomonas aeruginosa isolated from burn patients; assay: Antibiotic resistance profile, disc diffusion method; further: key: R = resistant; I = intermediate; S = sensitive; assay type: cell-based; conditions: P. aeruginosa
[4] = tested on: Staphylococcus aureus isolated from burn patients; assay: as above; assay type: cell-based; conditions: S. aureus; further: key: R = resistant; I = intermediate; S = sensitive
Aeromonas caviae = assay: MIC and FIC of EDTA and neomycin, Aeromonas isolated from ulcerated fish; assay type: cell-based; conditions: A. caviae; EDTA in 50 mM Tris
Experimental: (§5) This example describes a method for determining the FIC values set forth in Example 4. […] Agents and Chem. pp. 210-217 (1967); and Sparks et al., Vet. Res. Comm. 18:241-249 (1994). Each of the foregoing publications are incorporated herein by reference. […] Then 0.05 ml of an 18-hour old culture of a test organism, containing […] colony-forming units (CFU) ml, were added to each well. Controls for the culture and media were included in each plate. Plates were covered and incubated at 37° C. for 18-24 hours. A numerical score or Fractional Inhibitory Concentration (FIC) index was determined. The FIC index is equal to the sum of the values of FIC for the individual drugs: An FIC index greater than 1.0 indicated an antagonistic interaction, an FIC index of 1.0 indicated addition, and an FIC index of less than or equal to 0.5 indicated synergism between the two test agents.

Aeromonas sobria = assay: as above; assay type: cell-based; conditions: A. sobria; EDTA in 50 mM Tris
Experimental: as §5

[5] = tested on: surface ulcers of Koi (multiple antibiotic-resistant pathogenic species); assay: Immersion bath treatment of Koi suffering from surface ulcers; assay type: in vivo, Koi (Cyprinus carpio); conditions: antibiotic injected directly into the fish, before the bath treatment
Experimental: An immersion treatment of the infected animals of 5 to 10 minutes on alternate days over a six day period promoted healing of most ulcers.
All of the treated fish had previously been given injections of Azactam, Baytril, and Amikacin. […] Among the species of bacteria found in the ulcers of the fish were representatives of the genera Aeromonas, Proteus, Klebsiella, Staphylococcus, Streptococcus, Enterobacter and Flavobacterium.
All fish were housed in a communal “hospital tank” before treatment and moved to an isolation tank after each treatment. The temperature of the bath was adjusted to that of the hospital tank temperature, 24 C, and adequate aeration was supplied to the treatment tank. Eight of the fish had external ulcers of various dimensions. Two of the fish were dropsied.

[6] = tested on: Staphylococcus aureus isolated from a human burn patient; assay: MIC and MBC of Tris, EDTA, cocamidopropyl betaine and silver combinations; assay type: cell-based; conditions: S. aureus (human burn isolate); multiple of the 1x stock solution of the tested composition
[7] = tested on: Staphylococcus intermedius; assay: MIC and MBC, isolates from dogs with otitis externa and pyoderma; assay type: cell-based; conditions: S. intermedius; multiple of the 1x stock solution of the tested composition
Experimental: (§6) The formulation was tested against Pseudomonas aeruginosa, Proteus mirabilis, Escherichia coli, Staphylococcus intermedius, Malessezia pachydermatis, and Candida albicans.

Candida albicans = assay: as above; assay type: cell-based; conditions: C. albicans; multiple of the 1x stock solution of the tested composition
Experimental: as §6

Proteus mirabilis = assay: as above; assay type: cell-based; conditions: P. mirabilis; multiple of the 1x stock solution of the tested composition
Experimental: as §6

Pseudomonas aeruginosa [8] = assay: as above; assay type: cell-based; conditions: P. aeruginosa (dog isolate); multiple of the 1x stock solution of the tested composition
Experimental: as §6

Malassezia pachydermatis = assay: as above; assay type: cell-based; conditions: M. pachydermatis; multiple of the 1x stock solution of the tested composition
Experimental: as §6

[9] = tested on: Escherichia coli isolated from a dog with otitis externa; assay: as above; assay type: cell-based; conditions: E. coli
Experimental: as §6

[10] = tested on: Pseudomonas aeruginosa isolated from a human burn patient; assay: MIC and MBC of Tris, EDTA, cocamidopropyl betaine and silver combinations; assay type: cell-based; conditions: P. aeruginosa (human burn isolate); multiple of the 1x stock solution of the tested composition
[11] = neomycin co-administered with EDTA in 50 mM Tris
[12] = EDTA co-administered with neomycin in 50 mM Tris
[13] = multiple of the 1x stock solution of the tested composition

In the case of neomycin, the Antibiotic resistance profile [1] is reported as “R”, the “MBC, Individually Administered” value (Pseudomonas aeruginosa [2]; neomycin alone in 50 mM Tris) is reported as 5000 µg/mL and the “MBC, Co-administered” value (Pseudomonas aeruginosa [2]; [11]) is reported as 40 µg/mL. For the same compound, the “MBC, Co-administered” value (Staphylococcus aureus; [11]) was 1560 µg/mL, the “MBC, Individually Administered” value (Enterococcus faecalis; neomycin alone in 50 mM Tris) was 25000 µg/mL and the “MBC, Co-administered” value (Enterococcus faecalis; [11]) was 6250 µg/mL. For the same compound, the Antibiotic resistance profile [3] was “R” and the Antibiotic resistance profile [4] was “R”.
In the case of `CN[C@H](CC(C)C)C(=O)N[C@H]1C(=O)N[C@@H](CC(N)=O)C(=O)N[C@H]2C(=O)N[C@H]3C(=O)N[C@H](C(=O)N[C@H](C(=O)O)c4cc(O)cc(O)c4-c4cc3ccc4O)[C@H](O)c3ccc(c(Cl)c3)Oc3cc2cc(c3O[C@@H]2O[C@H](CO)[C@@H](O)[C@H](O)[C@H]2O[C@H]2C[C@](C)(N)[C@H](O)[C@H](C)O2)Oc2ccc(cc2Cl)[C@H]1O` [Va, vancomycin], the Antibiotic resistance profile [1] is reported as “R”, the Antibiotic resistance profile [3] is reported as “R” and the Antibiotic resistance profile [4] is reported as “S”.
In the case of `O=C(O)CN(CCN(CC(=O)O)CC(=O)O)CC(=O)O` [EDTA, ethylenediaminetetraacetate], the “MBC, Individually Administered” value (Pseudomonas aeruginosa [2]; EDTA alone in 50 mM Tris) is reported as 250 mM, the “MBC, Co-administered” value (Pseudomonas aeruginosa [2]; [12]) is reported as 20.0 mM and the “MBC, Co-administered” value (Staphylococcus aureus; [12]) is reported as 3.9 mM. The “MBC, Individually Administered” value (Enterococcus faecalis; EDTA alone in 50 mM Tris) was 250 mM, the “MBC, Co-administered” value (Enterococcus faecalis; [12]) was 62.5 mM and the “MIC, EDTA alone” value (Aeromonas caviae) was under 0.49. The “MIC, EDTA alone” value (Aeromonas sobria) was 15.6.
With `C[C@H]1[C@H](NC(=O)/C(=N\OC(C)(C)C(=O)O)c2csc(N)n2)C(=O)N1S(=O)(=O)O` [Azactam] the “healing of visible ulcers” value [5] was “failed to heal visible ulcers”.
`NCC[C@H](O)C(=O)N[C@@H]1C[C@H](N)[C@@H](O[C@H]2O[C@H](CN)[C@@H](O)[C@H](O)[C@H]2O)[C@H](O)[C@H]1O[C@H]1O[C@H](CO)[C@@H](O)[C@H](N)[C@H]1O` [Amikacin] was tested, and the “healing of visible ulcers” value [5] was “failed to heal visible ulcers”.
In the case of gentamicin [GM], the Antibiotic resistance profile [1] is reported as “R”, the Antibiotic resistance profile [3] is reported as “I” and the Antibiotic resistance profile [4] is reported as “S”.
In the case of `CCN1CCN(c2cc3c(cc2F)c(=O)c(C(=O)O)cn3C2CC2)CC1` [Baytril], the “healing of visible ulcers” value [5] is reported as “failed to heal visible ulcers”.
oxacillin/methicillin was tested, and the Antibiotic resistance profile [1] was “R”, the Antibiotic resistance profile [3] was “R” and the Antibiotic resistance profile [4] was “R”.
cocamidopropyl betaine gave an MBC [6] of 0.001x, an MIC [6] of 0.001x and an MBC [7] of 0.001x. The MIC [7] was 0.001x, the MBC (Candida albicans) was 0.003x and the MIC (Candida albicans) was 0.001x. The MBC (Proteus mirabilis) was 0.5x, the MIC (Proteus mirabilis) was 0.25x and the MBC (Pseudomonas aeruginosa [8]) was 0.5x. It also gave an MIC (Pseudomonas aeruginosa [8]) of 0.25x, an MBC (Malassezia pachydermatis) of 0.003x and an MIC (Malassezia pachydermatis) of 0.001x. The MBC [9] was 50% of stock solution, the MIC [9] was 25% of stock solution and the MBC [9, 13] was 0.5x. For the same compound, the MIC [9, 13] was 0.25x, the MBC [10] was 0.5x and the MIC [10] was 0.25x.
